Test results from patent US20160375031A1, “ALPHA-OXOACYL AMINO-CAPROLACTAM DERIVATIVE” (Seikagaku Corporation, priority 2013, published 2016).
Several values for one entry are separate records, joined by “and”; a condition that tells them apart may be missing. Equal entries are not always repeated. Where two headings read alike, the source gives them in different places.

Legend:
[1] = system: male mice fed with low-calcium diet; conditions: values shown in JP 2000-204071 A (Patent Literature 1); cited from earlier work
CYP3A4 [2] = target: T1, CYP3A4 (Homo sapiens, UniProt P08684)
T1 sequence (P08684 whole entry): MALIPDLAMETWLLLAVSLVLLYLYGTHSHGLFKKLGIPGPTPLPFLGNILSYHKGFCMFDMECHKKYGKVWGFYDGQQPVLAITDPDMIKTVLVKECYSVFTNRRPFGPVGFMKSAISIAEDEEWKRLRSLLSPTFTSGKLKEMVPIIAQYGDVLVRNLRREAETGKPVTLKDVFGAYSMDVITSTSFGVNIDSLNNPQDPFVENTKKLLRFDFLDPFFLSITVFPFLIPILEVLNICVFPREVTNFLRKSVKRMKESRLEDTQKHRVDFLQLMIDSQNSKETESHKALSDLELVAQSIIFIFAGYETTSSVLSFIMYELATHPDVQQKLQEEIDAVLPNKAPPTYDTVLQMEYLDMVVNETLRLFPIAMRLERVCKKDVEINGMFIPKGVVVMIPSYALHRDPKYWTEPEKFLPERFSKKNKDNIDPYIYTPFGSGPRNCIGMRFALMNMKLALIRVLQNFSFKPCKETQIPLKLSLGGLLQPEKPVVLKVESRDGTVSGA
Description: (§1) A reaction mixture was prepared by mixing the compound of the present invention with midazolam as a typical substrate for CYP3A4 (see Food and Drug Administration (FDA) Guidance for Industry Drug Interaction Studies—Study Design, Data Analysis, Implications for Dosing, and Labeling Recommendations. FDA web site [online], www.fda.gov/downloads/drugs/guidancecomplianceregulatoryinformation/guidances/ucm292362.pdf), coenzyme NADPH-generating system, human hepatic microsomes, and a phosphate buffer. The reaction mixture was incubated at 37° C. for 10 minutes.
(§2) The coenzyme NADPH-generating system solution was prepared by mixing the materials shown in Table 1: the 13 mmol/L β-NADP^+ solution, the 33 mmol/L G-6-P solution, the solution of 10 U/mL G6PDH (Y) (manufactured by Oriental Yeast Co., Ltd.), and the 33 mmol/L MgCl2 solution in a ratio of 1:1:0.4:1 (v:v:v:v).
(§3) After the incubation, the reaction was quenched by the addition of an acetonitrile solution to the reaction mixture. The amount of 1′-hydroxymidazolam produced (the metabolite produced from midazolam by CYP3A4) was measured in the quenched sample with a high-performance liquid chromatography tandem mass spectrometer (LC-MS/MS). Each IC50 value for DI (direct inhibition) was determined from the amount of the produced 1′-hydroxymidazolam and the final concentration of the compound of the present invention or the comparative compound in the reaction mixture.
(§4) MBI (mechanism based inhibition) was evaluated as follows. After the reaction mixture not containing midazolam (but containing the compound of the present invention or the comparative compound, the coenzyme NADPH-generating system, the human hepatic microsomes, and the phosphate buffer) was pre-incubated at 37° C. for 30 minutes, midazolam was added to the reaction mixture. The reaction mixture was then incubated at 37° C. for 10 minutes. Subsequently, the reaction was quenched by the addition of an acetonitrile solution to the reaction mixture. The amount of 1′-hydroxymidazolam produced was measured in the quenched sample with an LC-MS/MS. As in the case of DI, each IC50 value for MBI was determined from the amount of the produced 1′-hydroxymidazolam and the final concentration of the compound of the present invention or the comparative compound in the reaction mixture.

Cathepsin K [3] = target: T2, Cathepsin K (Oryctolagus cuniculus, UniProt P43236); experiment: Measurement of cathepsin K inhibitory activity (fluorescent substrate Z-Gly-Pro-Arg-MCA); conditions: for CYP/CatK: ratio of IC50 for CYP3A4 inhibitory activity (MBI) to IC50 for cathepsin K inhibitory activity
T2 sequence (P43236 115-329): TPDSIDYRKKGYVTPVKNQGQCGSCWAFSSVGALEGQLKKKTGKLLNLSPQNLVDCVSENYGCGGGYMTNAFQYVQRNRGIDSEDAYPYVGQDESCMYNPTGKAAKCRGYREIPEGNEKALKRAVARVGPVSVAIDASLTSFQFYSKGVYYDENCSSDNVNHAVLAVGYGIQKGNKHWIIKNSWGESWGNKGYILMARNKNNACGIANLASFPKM
Description: (§5) Specifically, the decomposition of 20 μM Z-Gly-Pro-Arg-MCA by cathepsin K was measured in 100 mM potassium sodium phosphate, 1 mM EDTA, 8 mM Cysteine, pH 6.0. The reaction was performed at 37° C. for 30 minutes and then quenched by the addition of 2×10^−5 M of calpeptin. After the reaction was quenched, the intensity of fluorescence was measured at an excitation wavelength of 355 nm and a measurement wavelength of 460 nm.

[4] = system: male mice fed with low-calcium diet; experiment: Measurement of bone resorption inhibitory activity (decrease in serum calcium in low-calcium diet mice); assay type: in vivo; conditions: low-calcium diet 7 days, 100 mg/kg oral, 4 hours after administration, vs control group
Description: The measurement was performed by the same method as described in JP 2000-204071 A (Patent Literature 1). Specifically, male mice (23 to 25 g weight, 8 mice per group) were fed with low-calcium diet (0.1% calcium diet) for 7 days. […] The rate (%) of decrease in serum calcium was determined by comparison with the control group.
It should be noted that the data of the rate (%) of decrease in serum calcium as to comparative compounds 1 to 15 are the values shown in JP 2000-204071 A (Patent Literature 1).

Cathepsin K [5] = target: T2, Cathepsin K
Description: as §5

CYP3A4 [6] = target: T1, CYP3A4; experiment: biochemical
Description: as §1, §2, §3, §4

[7] = read-out: CYP3A4 Inhibitory IC50 DI, DI (direct inhibition), human hepatic microsomes, midazolam, 37° C. 10 minutes
[8] = read-out: CYP3A4 Inhibitory IC50 MBI, MBI (mechanism based inhibition), 30 minutes pre-incubation with NADPH-generating system before midazolam
[9] = read-out: CatK Inhibitory IC50, 20 μM Z-Gly-Pro-Arg-MCA, pH 6.0, 37° C., 30 minutes

| CYP/CatK (Cathepsin K [5]) | IC50 (Cathepsin K [3]) | IC50 (CYP3A4 [6]) | Molecule | Rate of Decrease in Serum Ca [1] | IC50 (CYP3A4 [2]; [7]) | IC50 (CYP3A4 [2]; [8]) | CYP/CatK (Cathepsin K [3]) | IC50 (Cathepsin K [3]; [9]) | Rate of Decrease in Serum Ca [4] |
| --- | --- | --- | --- | --- | --- | --- | --- | --- | --- |
|  |  |  | [1-[[[(1S)-3-[[(3S)-hexahydro-2-oxo-1H-azepin-3-yl]amino]-1-(1-methylethyl)-2,3-dioxopropyl]amino]carbonyl]cyclohexyl]carbamic acid 1-(methoxycarbonyl)-4-piperidinyl ester [Compound 2] | 4.71% | 9.31 µM | 1.53 µM | 122 | 0.013 µM |  |
| 141739 | 0.00056 µM | > 100 µM and 80 µM | CC(C)[C@H](NC(=O)C1(NC(=O)OC2CCOCC2)CCCCC1)C(=O)C(=O)N[C@H]1CCCCNC1=O [Compound 1, [1-[[[(1S)-3-[[(3S)-hexahydro-2-oxo-1H-azepin-3-yl]amino]-1-(1-methylethyl)-2,3-dioxopropyl]amino]carbonyl]cyclohexyl]carbamic acid tetrahydro-2H-pyran-4-yl ester] |  |  |  |  |  | 6.2% |
|  |  |  | [1-[[[(1S)-3-[[(3S)-hexahydro-2-oxo-1H-azepin-3-yl]amino]-1-(1-methylethyl)-2,3-dioxopropyl]amino]carbonyl]cyclohexyl]carbamic acid tetrahydro-2H-pyran-4-yl ester [Compound 1] | 5.39% | 11.7 µM | 3.36 µM | 207 | 0.016 µM |  |
| 44231 | 0.00052 µM | 55.6 µM and 23 µM | COC(=O)N1CCC(OC(=O)NC2(C(=O)N[C@H](C(=O)C(=O)N[C@H]3CCCCNC3=O)C(C)C)CCCCC2)CC1 [Compound 2, [1-[[[(1S)-3-[[(3S)-hexahydro-2-oxo-1H-azepin-3-yl]amino]-1-(1-methylethyl)-2,3-dioxopropyl]amino]carbonyl]cyclohexyl]carbamic acid 1-(methoxycarbonyl)-4-piperidinyl ester] |  |  |  |  |  | 5.6% |
